# Source: US9447081B2, “Substituted pyrimidines as pharmaceuticals and insecticides” (SHENYANG SINOCHEM AGROCHEMICALS R&D CO., LTD., priority 2012, dated 2016)
# How the values were obtained:
# wheat powdery mildew = experiment: Protectant activity in vivo (whole plant), wheat powdery mildew
# Procedure: (§1) The method is as followed: The whole plant is used in this test. The compound is dissolved in a proper solvent to get mother solution. The proper solvent is selected from acetone, methanol, DMF and so on according to their dissolving capability to the sample. […] The testing solution is sprayed to the host plant by a special plant sprayer. The plant is inoculated with fungus after 24 hours. According to the infecting characteristic of fungus, the plant is stored in a humidity chamber and then transferred into greenhouse after infection is finished. And the other plants are placed in greenhouse directly. The activity of compound is obtained by eyeballing after 7 days in common.
# [1] = system: Green peach aphids (Myzus Persicae Sulzer); experiment: Activity against green peach aphid (airbrush foliar spray); type: in vivo; details: death rate after 48 h; for pest or weed control at 10 µg/mL / pest or weed control at 100 µg/mL / pest or weed control at 600 µg/mL: Myzus persicae, foliar, 48 h; for pest or weed control at 10 µg/mL: read-out: Insecticidal activity against peach aphid; for pest or weed control at 100 µg/mL / pest or weed control at 600 µg/mL: read-out: Insecticidal activity against peach aphid (control)
# Procedure: (§2) Compounds were dissolved in mixed solvent (acetone:methanol=1:1), and diluted to required concentration with water containing 0.1% of tween 80.
# (§3) Diamond back moth, armyworm, Green Peach Aphid and carmine spider mite were used as targets and the method of spraying by airbrush was used for determination of insecticidal biassays.
# Method: Filter papers were put in culture dishes (Diameter=6 cm), and water was dripped on filter papers for preserving moisture. Green peach aphids (Myzus Persicae Sulzer) were maintained on cabbage. Leaves (Diameter=3 cm) of approximately 15-30 aphids were put in the culture dishes. Bioactivity tests were used the method of Airbrush Foliar Spray, pressure=10 psi (0.7 kg/cm2), spray volume=0.5 mL. The studies were conducted at three constant temperatures 25±1 C. in incubator cabinets with 60±5% RH. Survey the survival aphids after 48 h and calculate the death rates.
# cucumber downy mildew = experiment: Protectant activity in vivo (whole plant), cucumber downy mildew; details: for pest or weed control at 25 µg/mL / pest or weed control at 50 µg/mL / pest or weed control at 100 µg/mL / pest or weed control at 400 µg/mL: Cucumis sativus, 168 h, read-out: protectant activity against cucumber downy mildew
# Procedure: as §1
# rice blast = experiment: microbe, parasite or virus in culture; type: cell-based; details: for inhibition at 25 µg/mL: Pyricularia oryzae, 24 h, read-out: inhibition rate against rice blast; for inhibition rate against rice blast: in vitro, 24 hours
# carmine spider mite = experiment: Acaricidal activity against carmine spider mite (airbrush spray); type: in vivo; details: 100 mg/L, adults, mortality after 72 hrs; for pest or weed control at 100 µg/mL: Tetranychus cinnabarinus
# Procedure: as §2, §3
# Method: Broadbean shoots with two true leaves in pot were taken, the healthy adults of carmine spider mite were inoculated to the leaves. The adults were counted and then sprayed with airbrush at the pressure of 0.7 kg/cm^2 and at dose of 0.5 ml. 3 replicates were set for each treatment. And then they were maintained in standard observation room. Scores were conducted and mortalities were calculated after 72 hrs.
# armyworm = experiment: Insecticidal activity against armyworm (airbrush spray); type: in vivo; details: second instar larvae, mortality after 72 h
# Procedure: as §2, §3
# (§4) The method of spraying by airbrush: The corn leaves were made into plates of 2 cm diameter by use of punch. A test solution (0.5 ml) was sprayed by airbrush at the pressure of 0.7 kg/cm^2 to both sides of every plate. 10 Second instar larvae were put into the petri-dishes after the leaf disc air-dried and 3 replicates were set for each treatment. Then the insects were maintained in observation room (25° C., 60˜70% R.H.). Scores were conducted and mortalities were calculated after 72 h.
# corn rust = experiment: Protectant activity in vivo (whole plant), corn rust; details: for pest or weed control at 25 µg/mL / pest or weed control at 100 µg/mL / pest or weed control at 400 µg/mL / pest or weed control at 6.25 µg/mL: Zea mays, 168 h, read-out: protectant activity against corn rust; for pest or weed control at 6.25 µg/mL: 6.25 mg/L
# Procedure: as §1
# diamond back moth = experiment: Insecticidal activity against diamond back moth (airbrush spray); type: in vivo; details: mortality after 72 h; for pest or weed control at 100 µg/mL: 100 mg/L; for pest or weed control at 100 µg/mL / pest or weed control at 600 µg/mL: read-out: control of the second instar larvae of diamond back moth
# Procedure: as §2, §3
# as §4, with “cabbage” for “corn”
# cucumber gray mold = experiment: Fungicidal activity in vitro (96-well, High Through Put), cucumber gray mold; type: cell-based; details: 25 mg/L, 24 hours, read-out: inhibition rate against cucumber gray mold
# [2] = Triticum aestivum, 168 h, 400 mg/L, read-out: protectant activity against wheat powdery mildew
# [3] = Triticum aestivum, 168 h, 25 mg/L, read-out: protectant activity against wheat powdery mildew
# [4] = Triticum aestivum, 168 h, 100 mg/L, read-out: protectant activity against wheat powdery mildew
Compound,pest or weed control at 400 µg/mL (wheat powdery mildew; [2]) [%],pest or weed control at 10 µg/mL ([1]; 10 mg/L) [%],pest or weed control at 100 µg/mL ([1]; 100 mg/L) [%],pest or weed control at 600 µg/mL ([1]; 600 mg/L) [%],pest or weed control at 100 µg/mL (cucumber downy mildew; 100 mg/L) [%],pest or weed control at 400 µg/mL (cucumber downy mildew; 400 mg/L) [%],inhibition at 25 µg/mL (rice blast) [%],pest or weed control at 100 µg/mL (carmine spider mite) [%],pest or weed control at 600 µg/mL (armyworm; 600 mg/L) [%],pest or weed control at 100 µg/mL (corn rust; 100 mg/L) [%],pest or weed control at 400 µg/mL (corn rust; 400 mg/L) [%],pest or weed control at 25 µg/mL (wheat powdery mildew; [3]) [%],pest or weed control at 100 µg/mL (wheat powdery mildew; [4]) [%],pest or weed control at 600 µg/mL (diamond back moth; 600 mg/L) [%],protectant activity against cucumber downy mildew (cucumber downy mildew; 25 mg/L) [%],protectant activity against cucumber downy mildew (cucumber downy mildew; 50 mg/L) [%],protectant activity against cucumber downy mildew (cucumber downy mildew; 100 mg/L) [%],protectant activity against cucumber downy mildew (cucumber downy mildew; 400 mg/L) [%],further results
CCc1ncnc(NCc2ccc3c(c2)OCO3)c1Cl [CK1],0,0,30,70,30,100,0,39,0,20,70,–,–,–,–,–,–,–,pest or weed control at 25 µg/mL (cucumber downy mildew; 25 mg/L): 0%; pest or weed control at 50 µg/mL (cucumber downy mildew; 50 mg/L): 20%; pest or weed control at 25 µg/mL (corn rust; 25 mg/L): 0%
Cc1ncnc(NCc2ccc3c(c2)OCO3)c1Cl [CK2],60,0,12,20,60,100,0,0,14,0,75,40,60,20,–,–,–,–,"pest or weed control at 6.25 µg/mL (wheat powdery mildew; Triticum aestivum, 168 h, 6.25 mg/L, read-out: protectant activity against wheat powdery mildew): 0%; pest or weed control at 25 µg/mL (cucumber downy mildew; 25 mg/L): 0%; pest or weed control at 50 µg/mL (cucumber downy mildew; 50 mg/L): 40%; pest or weed control at 100 µg/mL (diamond back moth): 5%; pest or weed control at 100 µg/mL (armyworm; 100 mg/L): 0%"
COc1ccc(CCNc2ncnc(C(F)F)c2Cl)cc1OC [CK5],100,8,35,100,–,–,0,0,0,–,–,0,20,40,–,–,–,–,pest or weed control at 100 µg/mL (diamond back moth): 20%
COc1ccc(CNc2ncnc(C(F)F)c2Cl)cc1OC [CK6],85,–,–,0,0,80,0,0,0,–,–,0,25,–,–,–,–,–,pest or weed control at 100 µg/mL (diamond back moth): 0%
COc1ccc(CCNc2ncnc(C(F)(F)F)c2Cl)cc1OC [CK7],80,0,37,66,–,–,0,–,0,0,70,0,30,–,–,–,–,–,inhibition at 25 µg/mL (cucumber gray mold): 0%
FC(F)c1ncnc(NCc2ccc3c(c2)OCO3)c1Cl [CK9],70,–,–,–,0,50,0,0,0,25,80,0,10,0,–,–,–,–,pest or weed control at 6.25 µg/mL (corn rust): 0%; pest or weed control at 25 µg/mL (corn rust; 25 mg/L): 0%
ClCc1ncnc(NCc2ccc3c(c2)OCO3)c1Cl [CK12],0,0,0,10,0,50,–,0,0,0,40,–,–,0,–,–,–,–,–
Clc1ncnc(NCCc2ccc3c(c2)OCO3)c1Cl [Compound 2],–,–,–,–,–,–,–,–,–,–,–,–,–,–,100,100,100,100,protectant activity against wheat powdery mildew (wheat powdery mildew; 400 mg/L): 100%; inhibition rate against rice blast (rice blast; 2.8 mg/L): 80%; inhibition rate against rice blast (rice blast; 8.3 mg/L): 100%; inhibition rate against rice blast (rice blast; 25 mg/L): 100%
FC(F)c1ncnc(NCCc2ccc3c(c2)OCO3)c1Cl [Compound 18],–,–,–,–,–,–,–,–,–,–,–,–,–,–,100,100,100,100,protectant activity against wheat powdery mildew (wheat powdery mildew; 6.25 mg/L): 100%; protectant activity against wheat powdery mildew (wheat powdery mildew; 25 mg/L): 100%; protectant activity against wheat powdery mildew (wheat powdery mildew; 100 mg/L): 100%; protectant activity against wheat powdery mildew (wheat powdery mildew; 400 mg/L): 100%; Insecticidal activity against peach aphid ([1]; 10 mg/L): 68%; Insecticidal activity against peach aphid (control) ([1]; 100 mg/L): 100%; Insecticidal activity against peach aphid (control) ([1]; 600 mg/L): 100%; protectant activity against cucumber downy mildew (cucumber downy mildew; 12.5 mg/L): 80%; inhibition rate against rice blast (rice blast; 0.9 mg/L): 80%; inhibition rate against rice blast (rice blast; 2.8 mg/L): 80%; inhibition rate against rice blast (rice blast; 8.3 mg/L): 100%; inhibition rate against rice blast (rice blast; 25 mg/L): 100%; control of the second instar larvae of diamond back moth (diamond back moth; 600 mg/L): 100%; control against carmine spider mite (carmine spider mite): 90%; control of the armyworm (armyworm; 600 mg/L): 100%; protectant activity against corn rust (corn rust; 25 mg/L): 98%; protectant activity against corn rust (corn rust; 100 mg/L): 100%; protectant activity against corn rust (corn rust; 400 mg/L): 100%
FC(F)(F)c1ncnc(NCCc2ccc3c(c2)OCO3)c1Cl [Compound 20],–,–,–,–,–,–,–,–,–,–,–,–,–,–,20,100,100,100,–
Cc1ncnc(NCCc2ccc3c(c2)OCO3)c1Cl [Compound 1451],–,–,–,100,0,100,–,–,–,–,80,–,–,–,–,–,–,–,pest or weed control at 25 µg/mL (cucumber downy mildew; 25 mg/L): 0%; pest or weed control at 50 µg/mL (cucumber downy mildew; 50 mg/L): 0%
Cc1ncnc(NCCc2ccc3c(c2)OCO3)c1Cl [Compound 1452],–,–,–,–,–,–,–,–,–,–,–,–,–,80,0,0,0,95,Insecticidal activity against peach aphid (control) ([1]; 600 mg/L): 90%
CCc1ncnc(NCCc2ccc3c(c2)OCO3)c1Cl [Compound 1465],–,0,70,100,–,–,–,–,–,95,100,–,–,100,–,–,–,–,pest or weed control at 6.25 µg/mL (corn rust): 0%; pest or weed control at 25 µg/mL (corn rust; 25 mg/L): 50%
